Patent publication US5451564A, “Antimicrobial composition comprising N-hydroxy heterocyclic thiones” (priority 1991, dated 1995)
Where two headings read alike, the source gives them in different places.

Assays:
[1] = system: mixed suspension of Pseudomonas aeruginosa, Proteus rettgeri, Serratia marcescans, Aeromonas hydrophila, Alcaligenes species, Pseudomonas cepacia and …; assay: repeated bacterial challenge test in acrylic (emulsion) paint; format: cell-based, mixed bacteria; parameters: key: 5: Confluent growth; 4: Heavy growth; 3: Moderate growth; 2: Slight growth; 1: Trace growth; 0: No growth
Experimental: (§1) An inoculum was prepared containing Pseudomonas aeruginosa, Proteus rettgeri, Serratia marcescans, Aeromonas hydrophila, Alcaligenes species, Pseudomonas cepacia and Pseudomonas putida by culturing the individual organisms onto nutrient agar and incubating for 24 hours at 30° C. Each of the individual suspensions of the test organisms were then prepared at a concentration of 10E8 cfu/ml in one quarter strength Ringer's solution by means of a Thoma counting chamber. A mixed suspension was obtained by mixing equal volumes of the individual suspensions. This procedure was repeated for each of the three challenges to which the test substrates were subjected, and the concentration of micro-organisms in each substrate after challenge was 2×10E6 cfu/ml.
(§2) Aliquots (50 parts) of a standard laboratory acrylic latex and an emulsion paint were prepared containing 0, 10, 25, 50, 100, 125, 250, 500 and 750 ppm of the 1:2 zinc complex of 3-hydroxy-4-methylthiazol-2(3H)thione which was prepared as a 1% dispersion in an aqueous solution of 0.1M tetrasodium pyrophosphate. A 1% dispersion of the 1:2 zinc complex of 1-hydroxy-2-pyridinethiol in an aqueous solution of 0.1M tetrasodiumpyrophosphate was evaluated in the same manner.
(§3) The test substrates were then stored at 40° C. for seven days and were then challenged on three separate occasions with 1 part by volume of the mixed suspension of micro-organisms. All the substrates were then incubated at 30° C. and examined for the presence of viable bacteria after 1, 3 and 7 days after each challenge (Phase 1).
(§4) Those samples which had achieved sterility were then stored for a further 8 weeks at 30° C., and were then rechallenged and the number of viable organisms again determined (Phase 2).
(§5) Viable bacteria were detected by streaking small aliquots onto nutrient agar followed by incubation at 30° C. for 2 days. The presence or absence of colonies was determined visually. […]

[2] = system: mixed suspension of Pseudomonas aeruginosa, Proteus rettgeri, Serratia marcescans, Aeromonas hydrophila, Alcaligenes species, Pseudomonas cepacia and …; format: cell-based, mixed bacteria; parameters: key: 5: Confluent growth; 4: Heavy growth; 3: Moderate growth; 2: Slight growth; 1: Trace growth; 0: No growth
Experimental: as §1, §2, §3, §4, §5

[3] = aqueous solubility of zinc complex after milling in pyrophosphate solution and dilution with distilled water until clear; format: physicochemical
Experimental: The concentration of the 2:1 zinc complex was then determined.
The zinc complex was milled in a 0.1 molar solution of tetrasodium pyrophosphate as described in Example 1. This was then diluted with distilled water until a clear solution was obtained.
These solutions were prepared by the method described in Example 1.

Cc1csc(=S)n1[O-].Cc1csc(=S)n1[O-].[Zn+2] [Compound A, 1:2 zinc complex of 3-hydroxy-4-methylthiazol-2(3H)thione]
3: growth rating ([1]; paint 25 ppm, Phase 1 Chall 1, day 3) | growth rating ([1]; paint 50 ppm, Phase 1 Chall 1, day 3) | growth rating ([2]; latex 25 ppm, Phase 1 Chall 2, day 7) | growth rating ([2]; latex 100 ppm, Phase 1 Chall 1, day 3) | growth rating ([2]; latex 125 ppm, Phase 1 Chall 1, day 3) | growth rating ([2]; latex 250 ppm, Phase 1 Chall 1, day 3) | growth rating ([2]; latex 500 ppm, Phase 1 Chall 1, day 3) | growth rating ([2]; latex 500 ppm, Phase 1 Chall 3, day 1) | growth rating ([2]; latex 750 ppm, Phase 1 Chall 2, day 1) | growth rating ([2]; latex 750 ppm, Phase 1 Chall 2, day 3)
5: growth rating ([1]; paint 10 ppm, Phase 1 Chall 1, day 1) | growth rating ([1]; paint 10 ppm, Phase 1 Chall 1, day 3) | growth rating ([1]; paint 10 ppm, Phase 1 Chall 2, day 1) | growth rating ([1]; paint 10 ppm, Phase 1 Chall 2, day 3) | growth rating ([1]; paint 10 ppm, Phase 1 Chall 2, day 7) | growth rating ([1]; paint 10 ppm, Phase 1 Chall 3, day 1) | growth rating ([1]; paint 10 ppm, Phase 1 Chall 3, day 3) | growth rating ([1]; paint 10 ppm, Phase 1 Chall 3, day 7) | growth rating ([1]; paint 25 ppm, Phase 1 Chall 1, day 1) | growth rating ([1]; paint 25 ppm, Phase 1 Chall 2, day 1) | growth rating ([1]; paint 25 ppm, Phase 1 Chall 3, day 1) | growth rating ([1]; paint 25 ppm, Phase 1 Chall 3, day 3) | growth rating ([1]; paint 50 ppm, Phase 1 Chall 1, day 1) | growth rating ([1]; paint 50 ppm, Phase 1 Chall 2, day 1) | growth rating ([1]; paint 50 ppm, Phase 1 Chall 3, day 1) | growth rating ([1]; paint 100 ppm, Phase 1 Chall 1, day 1) | growth rating ([2]; latex 10 ppm, Phase 1 Chall 1, day 1) | growth rating ([2]; latex 10 ppm, Phase 1 Chall 1, day 3) | growth rating ([2]; latex 10 ppm, Phase 1 Chall 2, day 1) | growth rating ([2]; latex 10 ppm, Phase 1 Chall 2, day 3) | growth rating ([2]; latex 10 ppm, Phase 1 Chall 2, day 7) | growth rating ([2]; latex 10 ppm, Phase 1 Chall 3, day 1) | growth rating ([2]; latex 10 ppm, Phase 1 Chall 3, day 3) | growth rating ([2]; latex 10 ppm, Phase 1 Chall 3, day 7) | growth rating ([2]; latex 25 ppm, Phase 1 Chall 1, day 1) | growth rating ([2]; latex 25 ppm, Phase 1 Chall 1, day 3) | growth rating ([2]; latex 25 ppm, Phase 1 Chall 2, day 1) | growth rating ([2]; latex 25 ppm, Phase 1 Chall 2, day 3) | growth rating ([2]; latex 25 ppm, Phase 1 Chall 3, day 1) | growth rating ([2]; latex 25 ppm, Phase 1 Chall 3, day 3) | growth rating ([2]; latex 25 ppm, Phase 1 Chall 3, day 7) | growth rating ([2]; latex 50 ppm, Phase 1 Chall 1, day 1) | growth rating ([2]; latex 50 ppm, Phase 1 Chall 2, day 1) | growth rating ([2]; latex 50 ppm, Phase 1 Chall 3, day 1) | growth rating ([2]; latex 100 ppm, Phase 1 Chall 1, day 1) | growth rating ([2]; latex 125 ppm, Phase 1 Chall 1, day 1) | growth rating ([2]; latex 250 ppm, Phase 1 Chall 1, day 1) | growth rating ([2]; latex 500 ppm, Phase 1 Chall 1, day 1)
2: growth rating ([2]; latex 50 ppm, Phase 1 Chall 1, day 3) | growth rating ([2]; latex 50 ppm, Phase 1 Chall 1, day 7) | growth rating ([2]; latex 500 ppm, Phase 1 Chall 3, day 3) | growth rating ([2]; latex 750 ppm, Phase 1 Chall 1, day 3) | growth rating ([2]; latex 750 ppm, Phase 1 Chall 3, day 1)
about 10,000 ppm: solubility in the presence of the pyrophosphate anion ([3]; milled in 0.1 molar tetrasodium pyrophosphate, diluted with distilled water)
4: growth rating ([1]; paint 25 ppm, Phase 1 Chall 2, day 3) | growth rating ([1]; paint 25 ppm, Phase 1 Chall 3, day 7) | growth rating ([1]; paint 50 ppm, Phase 1 Chall 2, day 3) | growth rating ([1]; paint 50 ppm, Phase 1 Chall 3, day 3) | growth rating ([2]; latex 10 ppm, Phase 1 Chall 1, day 7) | growth rating ([2]; latex 25 ppm, Phase 1 Chall 1, day 7) | growth rating ([2]; latex 50 ppm, Phase 1 Chall 2, day 3) | growth rating ([2]; latex 50 ppm, Phase 1 Chall 3, day 3) | growth rating ([2]; latex 100 ppm, Phase 1 Chall 2, day 1) | growth rating ([2]; latex 100 ppm, Phase 1 Chall 2, day 3) | growth rating ([2]; latex 100 ppm, Phase 1 Chall 3, day 1) | growth rating ([2]; latex 100 ppm, Phase 1 Chall 3, day 3) | growth rating ([2]; latex 125 ppm, Phase 1 Chall 2, day 1) | growth rating ([2]; latex 125 ppm, Phase 1 Chall 2, day 3) | growth rating ([2]; latex 125 ppm, Phase 1 Chall 3, day 1) | growth rating ([2]; latex 125 ppm, Phase 1 Chall 3, day 3) | growth rating ([2]; latex 250 ppm, Phase 1 Chall 2, day 1) | growth rating ([2]; latex 250 ppm, Phase 1 Chall 2, day 3) | growth rating ([2]; latex 250 ppm, Phase 1 Chall 3, day 1) | growth rating ([2]; latex 250 ppm, Phase 1 Chall 3, day 3) | growth rating ([2]; latex 500 ppm, Phase 1 Chall 2, day 1) | growth rating ([2]; latex 500 ppm, Phase 1 Chall 2, day 3) | growth rating ([2]; latex 750 ppm, Phase 1 Chall 1, day 1)
about 5 ppm: aqueous solubility ([3]; finely milled sample, no pyrophosphate)
0: growth rating ([1]; paint 10 ppm, Phase 1 Chall 1, day 7) | growth rating ([1]; paint 25 ppm, Phase 1 Chall 1, day 7) | growth rating ([1]; paint 25 ppm, Phase 1 Chall 2, day 7) | growth rating ([1]; paint 50 ppm, Phase 1 Chall 1, day 7) | growth rating ([1]; paint 50 ppm, Phase 1 Chall 2, day 7) | growth rating ([1]; paint 50 ppm, Phase 1 Chall 3, day 7) | growth rating ([2]; latex 50 ppm, Phase 1 Chall 2, day 7) | growth rating ([2]; latex 50 ppm, Phase 1 Chall 3, day 7) | growth rating ([2]; latex 100 ppm, Phase 1 Chall 1, day 7) | growth rating ([2]; latex 100 ppm, Phase 1 Chall 2, day 7) | growth rating ([2]; latex 100 ppm, Phase 1 Chall 3, day 7) | growth rating ([2]; latex 125 ppm, Phase 1 Chall 1, day 7) | growth rating ([2]; latex 125 ppm, Phase 1 Chall 2, day 7) | growth rating ([2]; latex 125 ppm, Phase 1 Chall 3, day 7) | growth rating ([2]; latex 250 ppm, Phase 1 Chall 1, day 7) | growth rating ([2]; latex 250 ppm, Phase 1 Chall 2, day 7) | growth rating ([2]; latex 250 ppm, Phase 1 Chall 3, day 7) | growth rating ([2]; latex 500 ppm, Phase 1 Chall 1, day 7) | growth rating ([2]; latex 500 ppm, Phase 1 Chall 2, day 7) | growth rating ([2]; latex 500 ppm, Phase 1 Chall 3, day 7) | growth rating ([2]; latex 750 ppm, Phase 1 Chall 1, day 7) | growth rating ([2]; latex 750 ppm, Phase 1 Chall 2, day 7) | growth rating ([2]; latex 750 ppm, Phase 1 Chall 3, day 3) | growth rating ([2]; latex 750 ppm, Phase 1 Chall 3, day 7)
